Data published in patent US9249125B2, “Pyrazole derivatives as p38 MAP inhibitors” (RESPIVERT LIMITED, priority 2012, dated 2016).

Tests used:
[1] = tested on: LPS-induced TNFα release in d-U937 cells; experiment: LPS-induced TNFα release in d-U937 cells; type: cell-based; conditions: Homo sapiens, dU937, relative to 10 μg/mL BIRB796, read-out: LPS Induced Release of Cytokine in d-937 Cells TNFα REC50
Method in brief: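 Read-out: TNFα and IL-8 released into supernatant, sandwich ELISA, expressed as inhibition versus vehicle at each dose and fitted to give REC50. Cells were PMA-differentiated U937 (100 ng/mL, 48–72 hr), compound-exposed 2 hr before a 4 hr LPS stimulus (0.1 μg/mL).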

GSK3α = GSK3α (Homo sapiens (Human), UniProt P49840); experiment: GSK 3α enzyme inhibition (FRET, Z-LYTE); type: biochemical
Method in brief: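 GSK3α (500 ng/mL stock) was preincubated 2 hr at RT with compound (4 to 0.004 μg/mL stocks), then FRET peptide (8 μM stock) and ATP (40 μM stock) added for 1 hr. Protease development for 1 hr cleaved unphosphorylated peptide; coumarin/fluorescein emission ratio reported phosphorylation.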

cSrc = cSrc (Homo sapiens (Human), UniProt P12931); experiment: c-Src enzyme inhibition (FRET, Z-LYTE); type: biochemical
Method in brief: (§1)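 Z-LYTE FRET kinase assay: enzyme (3000 or 2000 ng/mL stock, respectively) preincubated 2 h at RT with compound (4–0.004 μg/mL stocks), then FRET peptide plus ATP (800 μM stock for c-Src, 60 μM for Syk) added for 1 h. Protease development 1 h; phosphorylation from coumarin/fluorescein emission ratio.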

[2] = tested on: Poly I:C-induced ICAM-1 expression in BEAS2B cells; experiment: Poly I:C-induced ICAM-1 expression in BEAS2B cells; type: cell-based; conditions: Homo sapiens, BEAS-2B, read-out: Poly IC induced ICAM1 in BEAS2B IC50
Method in brief: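 BEAS2B human bronchial epithelial cells pre-incubated with compound for 2 hr, then transfected with 1 μg/mL poly I:C plus Oligofectamine. At 18 hr, surface ICAM-1 measured by cell-based ELISA (HRP, OD450–655). Signal corrected for cell number by crystal violet OD595.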

d-U937 cells = experiment: Cell viability: MTT assay; type: cell-based, human; conditions: 1 μg/mL
Method in brief: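 Differentiated U937 cells were exposed to compound at 1 or 10 μg/mL either 4 h in 5% FCS RPMI1640 or 24 h in 10% FCS RPMI1640, then given MTT for 1 h, DMSO-solubilised and read at 550 nm. Percent viability loss versus 0.5% DMSO vehicle; apparent gains appear negative.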

[3] = tested on: LPS-induced IL-8 release in d-U937 cells; experiment: LPS-induced IL-8 release in d-U937 cells; type: cell-based; conditions: Homo sapiens, dU937, read-out: LPS Induced Release of Cytokine in d-937 Cells IL-8 IC50
Method in brief: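 PMA (100 ng/mL, 48–72 hr)-differentiated U937; cpd 2 hr pre-inc; LPS 0.1 μg/mL (E. coli O111:B4) 4 hr. Supernatant TNFα/IL-8 by sandwich ELISA. IL-8 inhibition per concentration vs vehicle; REC50 from curve fit.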

Syk = Syk (Homo sapiens (Human), UniProt P43405); experiment: Syk enzyme inhibition (FRET, Z-LYTE); type: biochemical
Method in brief: as §1

Chain of cSrc (P12931 whole entry, looked up): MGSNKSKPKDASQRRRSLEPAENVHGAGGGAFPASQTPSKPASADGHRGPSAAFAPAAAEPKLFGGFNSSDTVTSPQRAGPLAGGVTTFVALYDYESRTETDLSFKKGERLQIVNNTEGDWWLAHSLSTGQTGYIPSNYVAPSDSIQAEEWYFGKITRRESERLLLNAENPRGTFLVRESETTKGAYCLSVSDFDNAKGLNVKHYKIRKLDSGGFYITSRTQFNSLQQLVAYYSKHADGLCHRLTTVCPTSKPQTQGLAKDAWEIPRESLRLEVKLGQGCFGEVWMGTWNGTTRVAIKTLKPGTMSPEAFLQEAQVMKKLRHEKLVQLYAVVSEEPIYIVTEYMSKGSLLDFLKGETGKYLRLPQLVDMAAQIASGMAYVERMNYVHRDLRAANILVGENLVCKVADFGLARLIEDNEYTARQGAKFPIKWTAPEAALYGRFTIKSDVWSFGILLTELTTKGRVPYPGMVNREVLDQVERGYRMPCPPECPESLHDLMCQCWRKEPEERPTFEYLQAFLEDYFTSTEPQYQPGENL
Chain of GSK3α (P49840 whole entry): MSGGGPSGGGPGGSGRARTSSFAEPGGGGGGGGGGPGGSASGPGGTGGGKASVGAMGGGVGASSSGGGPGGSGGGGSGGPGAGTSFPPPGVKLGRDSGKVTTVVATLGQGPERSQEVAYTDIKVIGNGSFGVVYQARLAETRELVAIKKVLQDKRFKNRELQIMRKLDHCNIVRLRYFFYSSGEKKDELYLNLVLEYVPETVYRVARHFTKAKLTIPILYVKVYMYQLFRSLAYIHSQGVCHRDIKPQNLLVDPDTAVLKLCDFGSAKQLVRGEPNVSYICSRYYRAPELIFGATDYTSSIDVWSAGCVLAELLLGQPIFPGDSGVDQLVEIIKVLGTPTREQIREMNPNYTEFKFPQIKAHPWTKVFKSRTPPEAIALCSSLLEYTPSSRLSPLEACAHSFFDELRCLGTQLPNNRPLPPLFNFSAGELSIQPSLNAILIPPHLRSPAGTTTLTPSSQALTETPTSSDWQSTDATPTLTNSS

Which results are given for Cc1ccc(-n2nc(C(C)(C)C)cc2NC(=O)Nc2ccc(Oc3ccnc(Nc4ccc5ncn(C)c5c4)n3)c3ccccc23)cc1 [Example 31, 1-(3-(tert-butyl)-1-(p-tolyl)-1H-pyrazol-5-yl)-3-(4-((2-((1-methyl-1H-benzo[d]imidazol-6-yl)amino)pyrimidin-4-yl)oxy)naphthalen-1-yl)urea]?
EC50 [1]: 0.3 nM; IC50 (GSK3α): 1610 nM; IC50 (cSrc): 6 nM; IC50 [2]: 2.3 nM; MTT Assay Cell viability at time point in d-U937 cells 4 h (d-U937 cells): −ve (−ve and +ve indicate that the value is below and above respectively, the no significant effect threshold, defined as 30% inhibition at 1 μg/mL at the time point indicated.); MTT Assay Cell viability at time point in d-U937 cells 24 h (d-U937 cells): −ve (−ve and +ve indicate that the value is below and above respectively, the no significant effect threshold, defined as 30% inhibition at 1 μg/mL at the time point indicated.); IC50 [3]: 0.6 nM; IC50 (Syk): 199 nM

Cc1cc(Nc2nccc(Oc3ccc(NC(=O)Nc4cc(C(C)(C)C)nn4-c4cccc(OCCN5CCOCC5)c4)c4ccccc34)n2)cc2cn[nH]c12 [Example 56, 1-(3-(tert-butyl)-1-(3-(2-morpholinoethoxy)phenyl)-1H-pyrazol-5-yl)-3-(4-((2-((7-methyl-1H-indazol-5-yl)amino)pyrimidin-4-yl)oxy)naphthalen-1-yl)urea] was tested. Which EC50 [1] did it give?
The EC50 was 4.9 nM.

And the IC50 (GSK3α)?
The IC50 was greater than 13300 nM.

And the IC50 (cSrc)?
The IC50 was 2 nM.

What about the IC50 [2] of the same compound?
The IC50 was 11.9 nM.

What about the “MTT Assay Cell viability at time point in d-U937 cells 4 h” value (d-U937 cells) of the same compound?
The value was “−ve (−ve and +ve indicate that the value is below and above respectively, the no significant effect threshold, defined as 30% inhibition at 1 μg/mL at the time point indicated.)”.

What about the “MTT Assay Cell viability at time point in d-U937 cells 24 h” value (d-U937 cells) of the same compound?
Its value is “+ve (−ve and +ve indicate that the value is below and above respectively, the no significant effect threshold, defined as 30% inhibition at 1 μg/mL at the time point indicated.)”.

And the IC50 [3]?
Its IC50 is 11 nM.

And the IC50 (Syk)?
The IC50 was 3 nM.

What does the source list for Cc1ccc(-n2nc(C(C)(C)C)cc2NC(=O)Nc2ccc(Oc3ccnc(Nc4ccc5[nH]ncc5c4)n3)c3ccccc23)cc1 [Example 22, 1-(4-((2-((1H-indazol-5-yl)amino)pyrimidin-4-yl)oxy)naphthalen-1-yl)-3-(3-(tert-butyl)-1-(p-tolyl)-1H-pyrazol-5-yl)urea]?
EC50 [1]: 4.7 nM; IC50 (GSK3α): > 16000 nM; IC50 (cSrc): 19 nM; IC50 [2]: 2.5 nM; MTT Assay Cell viability at time point in d-U937 cells 4 h (d-U937 cells): −ve (−ve and +ve indicate that the value is below and above respectively, the no significant effect threshold, defined as 30% inhibition at 1 μg/mL at the time point indicated.); MTT Assay Cell viability at time point in d-U937 cells 24 h (d-U937 cells): −ve (−ve and +ve indicate that the value is below and above respectively, the no significant effect threshold, defined as 30% inhibition at 1 μg/mL at the time point indicated.); IC50 [3]: 1.5 nM; IC50 (Syk): 26 nM

Which results are given for Cc1ccc(-n2nc(C(C)(C)C)cc2NC(=O)Nc2ccc(Oc3ccnc(Nc4ccc5c(c4)ncn5C)n3)c3ccccc23)cc1 [Example 4, 1-(3-(tert-Butyl)-1-(p-tolyl)-1H-pyrazol-5-yl)-3-(4-((2-((1-methyl-1H-benzo[d]imidazol-5-yl)amino)pyrimidin-4-yl)oxy)naphthalen-1-yl)urea]?
EC50 [1]: 2.4 nM; IC50 (GSK3α): 1370 nM; IC50 (cSrc): 4 nM; IC50 [2]: 2.4 nM; MTT Assay Cell viability at time point in d-U937 cells 4 h (d-U937 cells): −ve (−ve and +ve indicate that the value is below and above respectively, the no significant effect threshold, defined as 30% inhibition at 1 μg/mL at the time point indicated.); MTT Assay Cell viability at time point in d-U937 cells 24 h (d-U937 cells): −ve (−ve and +ve indicate that the value is below and above respectively, the no significant effect threshold, defined as 30% inhibition at 1 μg/mL at the time point indicated.); IC50 [3]: 2 nM; IC50 (Syk): 14 nM

Which results are given for Cc1ccc(-n2nc(C(C)(C)C)cc2NC(=O)Nc2ccc(Oc3ccnc(Nc4ccc5c(ccn5C)c4)n3)c3ccccc23)cc1 [Example 18, 1-(3-(tert-butyl)-1-(p-tolyl)-1H-pyrazol-5-yl)-3-(4-((2-((1-methyl-1H-indol-5-yl)amino)pyrimidin-4-yl)oxy)naphthalen-1-yl)urea]?
EC50 [1]: 2.8 nM; IC50 (GSK3α): 7080 nM; IC50 (cSrc): 155 nM; IC50 [2]: 1.9 nM; MTT Assay Cell viability at time point in d-U937 cells 4 h (d-U937 cells): −ve (−ve and +ve indicate that the value is below and above respectively, the no significant effect threshold, defined as 30% inhibition at 1 μg/mL at the time point indicated.); MTT Assay Cell viability at time point in d-U937 cells 24 h (d-U937 cells): −ve (−ve and +ve indicate that the value is below and above respectively, the no significant effect threshold, defined as 30% inhibition at 1 μg/mL at the time point indicated.); IC50 [3]: 5.7 nM; IC50 (Syk): 92 nM

For Cc1ccc(-n2nc(C(C)(C)C)cc2NC(=O)Nc2ccc(Oc3ccnc(Nc4ccc5scnc5c4)n3)c3ccccc23)cc1 [Example 34, 1-(4-((2-(benzo[d]thiazol-5-ylamino)pyrimidin-4-yl)oxy)naphthalen-1-yl)-3-(3-(tert-butyl)-1-(p-tolyl)-1H-pyrazol-5-yl)urea], which EC50 [1] is on record?
Its EC50 is 0.9 nM.

And the IC50 (GSK3α)?
Its IC50 is 1620 nM.

And the IC50 (cSrc)?
The IC50 was 18 nM.

And the IC50 [2]?
The IC50 was 6.3 nM.

And the “MTT Assay Cell viability at time point in d-U937 cells 4 h” value (d-U937 cells)?
Its value is “−ve (−ve and +ve indicate that the value is below and above respectively, the no significant effect threshold, defined as 30% inhibition at 1 μg/mL at the time point indicated.)”.

What about the “MTT Assay Cell viability at time point in d-U937 cells 24 h” value (d-U937 cells) of the same compound?
Its value is “−ve (−ve and +ve indicate that the value is below and above respectively, the no significant effect threshold, defined as 30% inhibition at 1 μg/mL at the time point indicated.)”.

And the IC50 [3]?
Its IC50 is 3.4 nM.

What about the IC50 (Syk) of the same compound?
The IC50 was greater than 1560 nM.

For Cc1ccc(-n2nc(C(C)(C)C)cc2NC(=O)Nc2ccc(Oc3ccnc(Nc4ccc5cn[nH]c5c4)n3)c3ccccc23)cc1 [Example 24, 1-(4-((2-((1H-indazol-6-yl)amino)pyrimidin-4-yl)oxy)naphthalen-1-yl)-3-(3-(tert-butyl)-1-(p-tolyl)-1H-pyrazol-5-yl)urea], which EC50 [1] is on record?
The EC50 was 4.7 nM.

What about the IC50 (GSK3α) of the same compound?
Its IC50 is 2180 nM.

And the IC50 (cSrc)?
The IC50 was 102 nM.

And the IC50 [2]?
The IC50 was 2.4 nM.

What about the “MTT Assay Cell viability at time point in d-U937 cells 4 h” value (d-U937 cells) of the same compound?
Its value is “−ve (−ve and +ve indicate that the value is below and above respectively, the no significant effect threshold, defined as 30% inhibition at 1 μg/mL at the time point indicated.)”.

And the “MTT Assay Cell viability at time point in d-U937 cells 24 h” value (d-U937 cells)?
The value was “−ve (−ve and +ve indicate that the value is below and above respectively, the no significant effect threshold, defined as 30% inhibition at 1 μg/mL at the time point indicated.)”.

What about the IC50 [3] of the same compound?
Its IC50 is 16.9 nM.

What about the IC50 (Syk) of the same compound?
Its IC50 is 1090 nM.

Which results are given for Cc1ccc(-n2nc(C(C)(C)C)cc2NC(=O)Nc2ccc(Oc3ccnc(Nc4ccc5[nH]cnc5c4)n3)c3ccccc23)cc1 [Example 30, 1-(4-((2-((1H-benzo[d]imidazol-5-yl)amino)pyrimidin-4-yl)oxy)naphthalen-1-yl)-3-(3-(tert-butyl)-1-(p-tolyl)-1H-pyrazol-5-yl)urea]?
EC50 [1]: 1.8 nM; IC50 (GSK3α): 301 nM; IC50 (cSrc): 17 nM; IC50 [2]: 4.7 nM; MTT Assay Cell viability at time point in d-U937 cells 4 h (d-U937 cells): −ve (−ve and +ve indicate that the value is below and above respectively, the no significant effect threshold, defined as 30% inhibition at 1 μg/mL at the time point indicated.); MTT Assay Cell viability at time point in d-U937 cells 24 h (d-U937 cells): −ve (−ve and +ve indicate that the value is below and above respectively, the no significant effect threshold, defined as 30% inhibition at 1 μg/mL at the time point indicated.); IC50 [3]: 7.7 nM; IC50 (Syk): > 1600 nM

How did the EC50 [1] turn out when COc1ccc(-n2nc(C(C)(C)C)cc2NC(=O)Nc2ccc(Oc3ccnc(Nc4ccc5[nH]ncc5c4)n3)c3ccccc23)cc1 [Example 40, 1-(4-((2-((1H-indazol-5-yl)amino)pyrimidin-4-yl)oxy)naphthalen-1-yl)-3-(3-(tert-butyl)-1-(4-methoxyphenyl)-1H-pyrazol-5-yl)urea] was run?
Its EC50 is 1.5 nM.

And the IC50 (GSK3α)?
The IC50 was greater than 15600 nM.

What about the IC50 (cSrc) of the same compound?
The IC50 was 8 nM.

And the IC50 [2]?
The IC50 was 2.4 nM.

And the “MTT Assay Cell viability at time point in d-U937 cells 4 h” value (d-U937 cells)?
The value was “−ve (−ve and +ve indicate that the value is below and above respectively, the no significant effect threshold, defined as 30% inhibition at 1 μg/mL at the time point indicated.)”.

And the “MTT Assay Cell viability at time point in d-U937 cells 24 h” value (d-U937 cells)?
Its value is “−ve (−ve and +ve indicate that the value is below and above respectively, the no significant effect threshold, defined as 30% inhibition at 1 μg/mL at the time point indicated.)”.

What about the IC50 [3] of the same compound?
Its IC50 is 7.2 nM.

What about the IC50 (Syk) of the same compound?
The IC50 was 24 nM.
